In US7759345B2, “Antitumoral derivatives of ET-743” (priority 2001, dated 2010):

Columns and labels:
Myelo = assay: In vitro toxicity, Myelo
Source text: (§2) Toxicity was asssessed by the methods reported in Toxicology in Vitro, 15 (2001) 571-577, J. Luber Narod et al.: “Evaluation of the use of in vitro methodolodies as tools for screening new compounds for potential in vivo toxicity”.

A-549 = assay: Inhibition of cells growth by colorimetric assay (SRB), A-549; assay type: cell-based
How it was run: (§1)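 Cells in RPMI 1640 with 10% FBS were seeded at 5×10^3 per well, allowed 18 h to attach, then exposed to compound (10 to 10^−8 μg/ml, in DMSO/EtOH/PBS 0.5:0.5:99) for 48 h. After TCA fixation and SRB staining, bound dye was solubilized in Tris and OD read at 490 nm; GI, TGI and LC derived from triplicates.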

SK-MEL-28 = assay: Inhibition of cells growth by colorimetric assay (SRB), SK-MEL-28; assay type: cell-based
How it was run: as §1

IGROV-ET = assay: Inhibition of cells growth by colorimetric assay (SRB), IGROV-ET; assay type: cell-based
How it was run: as §1

LoVo = assay: Inhibition of cells growth by colorimetric assay (SRB), LoVo; assay type: cell-based
How it was run: as §1

Skeletal = assay: In vitro toxicity, Skeletal
Source text: as §2

DU-145 = assay: Inhibition of cells growth by colorimetric assay (SRB), DU-145; assay type: cell-based
How it was run: as §1

IGROV-1 = assay: Inhibition of cells growth by colorimetric assay (SRB), IGROV-1; assay type: cell-based
How it was run: as §1

SK-BR-3 = assay: Inhibition of cells growth by colorimetric assay (SRB), SK-BR-3; assay type: cell-based
How it was run: as §1

LNCaP = assay: Inhibition of cells growth by colorimetric assay (SRB), LNCaP; assay type: cell-based
How it was run: as §1

SK-OV-3 = assay: Inhibition of cells growth by colorimetric assay (SRB), SK-OV-3; assay type: cell-based
How it was run: as §1

Kidney = assay: In vitro toxicity, Kidney
Source text: as §2

K-562 = assay: Inhibition of cells growth by colorimetric assay (SRB), K-562; assay type: cell-based
How it was run: as §1

LoVo-Dox = assay: Inhibition of cells growth by colorimetric assay (SRB), LoVo-Dox; assay type: cell-based
How it was run: as §1

HT-29 = assay: Inhibition of cells growth by colorimetric assay (SRB), HT-29; assay type: cell-based
How it was run: as §1

Liver = assay: In vitro toxicity, Liver
Source text: as §2

HMEC1 = assay: Inhibition of cells growth by colorimetric assay (SRB), HMEC1; assay type: cell-based
How it was run: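 Using sulforhodamine B, cell growth and viability are quantified after a 48 h drug exposure of cells maintained in RPMI 1640/10% FBS at 37 °C, 5% CO2. Concentrations span 10 to 10^−8 μg/ml; optical density is read at 490 nm.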

Heart = assay: In vitro toxicity, Heart
Source text: as §2

PANC-1 = assay: Inhibition of cells growth by colorimetric assay (SRB), PANC-1; assay type: cell-based
How it was run: as §1

SMILES: COc1cc2c(cc1O)CCN[C@]21CS[C@@H]2c3c(OC(=O)C(F)(F)C(F)(F)C(F)(F)F)c(C)c4c(c3[C@H](COC1=O)N1C2[C@H]2c3c(cc(C)c(OC)c3O)C[C@@H]([C@@H]1O)N2C)OCO4 (some centres unmarked) [Compound 167]
- Toxicity Data Myelo (Myelo): 1.01E-06
- GI50 (A-549; Homo sapiens, A549, 48 h, read-out: A-549 GI50): 0.0283 µM
- LC50 (concentration for 50% cell killing) (A-549; Homo sapiens, A549, 48 h, read-out: A-549 LC50, SRB assay, 48 hours exposure): 0.482 µM
- A-549 TGI (A-549; SRB assay, 48 hours exposure): 6.54E-08
- GI50 (SK-MEL-28; Homo sapiens, SK-MEL-28, 48 h, read-out: MEL-28 GI50): 0.0238 µM
- CC50 (SK-MEL-28; Homo sapiens, SK-MEL-28, 48 h, read-out: MEL-28 LC50, SRB assay, 48 hours exposure): 0.107 µM
- MEL-28 TGI (SK-MEL-28; SRB assay, 48 hours exposure): 5.06E-08
- GI50 (IGROV-ET; Homo sapiens, 48 h, read-out: IGROV-ET GI50): 0.0776 µM
- CC50 (IGROV-ET; Homo sapiens, 48 h, read-out: IGROV-ET LC50, SRB assay, 48 hours exposure): 5.24 µM
- IGROV-ET TGI (IGROV-ET; SRB assay, 48 hours exposure): 9.05E-07
- GI50 (LoVo; Homo sapiens, LoVo, 48 h, read-out: LOVO GI50): 0.0336 µM
- LC50 (concentration for 50% cell killing) (LoVo; Homo sapiens, LoVo, 48 h, read-out: LOVO LC50, SRB assay, 48 hours exposure): 0.19 µM
- LOVO TGI (LoVo; SRB assay, 48 hours exposure): 6.74E-08
- Toxicity Data Skeletal (Skeletal): 1.09E-07
- GI50 (DU-145; Homo sapiens, DU-145, 48 h, read-out: DU-145 GI50): 0.0488 µM
- CC50 (DU-145; Homo sapiens, DU-145, 48 h, read-out: DU-145 LC50, SRB assay, 48 hours exposure): 10.9 µM
- DU-145 TGI (DU-145; SRB assay, 48 hours exposure): 1.01E-07
- GI50 (IGROV-1; Homo sapiens, IGROV-1, 48 h, read-out: IGROV GI50): 0.00646 µM
- CC50 (IGROV-1; Homo sapiens, IGROV-1, 48 h, read-out: IGROV LC50, SRB assay, 48 hours exposure): 0.0892 µM
- IGROV TGI (IGROV-1; SRB assay, 48 hours exposure): 2.49E-08
- GI50 (SK-BR-3; Homo sapiens, SK-BR-3, 48 h, read-out: SK-BR3 GI50): 0.0176 µM
- CC50 (SK-BR-3; Homo sapiens, SK-BR-3, 48 h, read-out: SK-BR3 LC50, SRB assay, 48 hours exposure): 0.238 µM
- SK-BR3 TGI (SK-BR-3; SRB assay, 48 hours exposure): 5.19E-08
- GI50 (LNCaP; Homo sapiens, LNCaP, 48 h, read-out: LNCAP GI50, SRB assay, 48 hours exposure): 0.0197 µM
- CC50 (LNCaP; Homo sapiens, LNCaP, 48 h, read-out: LNCAP LC50, SRB assay, 48 hours exposure): 0.0736 µM
- LNCAP TGI (LNCaP; SRB assay, 48 hours exposure): 3.80E-08
- GI50 (SK-OV-3; Homo sapiens, SK-OV-3, 48 h, read-out: SK-OV3 GI50): 0.0402 µM
- LC50 (SK-OV-3; Homo sapiens, SK-OV-3, 48 h, read-out: SK-OV3 LC50, SRB assay, 48 hours exposure): 10.9 µM
- SK-OV3 TGI (SK-OV-3; SRB assay, 48 hours exposure): 1.48E-07
- Toxicity Data Kidney (Kidney): 2.77E-07
- GI50 (K-562; Homo sapiens, K562, 48 h, read-out: K-562 GI50): 0.007 µM
- LC50 (50% cell killing) (K-562; Homo sapiens, K562, 48 h, read-out: K-562 LC50, SRB assay, 48 hours exposure): 0.0717 µM
- K-562 TGI (K-562; SRB assay, 48 hours exposure): 9.64E-09
- GI50 (LoVo-Dox; Homo sapiens, 48 h, read-out: LOVO-DOX GI50): 0.416 µM
- CC50 (LoVo-Dox; Homo sapiens, 48 h, read-out: LOVO-DOX LC50, SRB assay, 48 hours exposure): 10.9 µM
- LOVO-DOX TGI (LoVo-Dox; SRB assay, 48 hours exposure): 1.58E-06
- GI50 (HT-29; Homo sapiens, HT-29, 48 h, read-out: HT-29 GI50): 0.0289 µM
- LC50 (concentration for 50% cell killing) (HT-29; Homo sapiens, HT-29, 48 h, read-out: HT-29 LC50, SRB assay, 48 hours exposure): 10.9 µM
- HT-29 TGI (HT-29; SRB assay, 48 hours exposure): 1.51E-07
- Toxicity Data Liver (Liver): 4.83E-07
- GI50 (HMEC1; Homo sapiens, HMEC-1, 48 h, read-out: HMEC-1 GI50): 0.0515 µM
- LC50 (HMEC1; Homo sapiens, HMEC-1, 48 h, read-out: HMEC-1 LC50, SRB assay, 48 hours exposure): 10.9 µM
- HMEC-1 TGI (HMEC1; SRB assay, 48 hours exposure): 3.49E-07
- Toxicity Data Heart (Heart): 4.28E-07
- GI50 (PANC-1; Homo sapiens, PANC-1, 48 h, read-out: PANC-1 GI50): 0.0465 µM
- LC50 (concentration for 50% net cell kill) (PANC-1; Homo sapiens, PANC-1, 48 h, read-out: PANC-1 LC50, SRB assay, 48 hours exposure): 10.9 µM
- PANC-1 TGI (PANC-1; SRB assay, 48 hours exposure): 1.09E-07
